Data published in patent US20080234188A1, “Antimicrobial Peptides” (The Hospital for Sick Children, priority 2001, published 2008).
Converted amounts (≈) assume the structure as drawn. Where a SMILES comes first, the peptide text is derived from it. Where no end group is shown, it is not given here.

Experiments:
[1] = system: Corynebacterium xerosis (C875); assay type: cell-based
Text: (§1) The bacterial strains used were E. coli C498, E. coli C500, Escherichia coli UB1005 and its antibiotic supersusceptible derivative DC2 (22); a clinical isolate of Staphylococcus epidermidis (C621); coryneform bacterial strain Corynebacterium xerosis (C875); and E. coli ATCC 25922, Staphylococcus aureus ATCC 25923, Enterococcus faecalis ATCC 29212, Bacillus subtilis ATCC 6633 and Pseudomonas aeruginosa ATCC 27853, all from American Type Culture Collection.
(§2) Peptide antibacterial activity was assessed by the method of R. Hancock et al. (Wu & Hancock (1999), J. Biol. Chem., v. 274, pp. 29-35). Test strains of bacteria from Mueller Hinton agar (MHA) plates were inoculated into 5 ml Mueller Hinton Broth (MHB) in tubes and grown overnight at 37° C. on a shaker (180 rpm). Serial dilutions of test peptides (at 10 times the required test concentrations) were made in 0.01% acetic acid, 0.2% BSA, in polypropylene or coated glass tubes as follows: the test peptide was (a) dissolved in distilled water at 20 times the required maximum concentration (enough final volume for all tests to be performed on a given day); (b) diluted into an equal volume of 0.02% acetic acid, 0.4% BSA to give 10 times the required maximum concentration; (c) serial doubling dilutions were performed in 0.01% acetic acid, 0.2% BSA to provide serial dilutions of peptides at 10 times the required test concentrations, e.g., 640, 320, 160, . . . 2.5 μg/ml. (No deleterious effects of long-term storage of peptides in these media have been detected). Overnight bacterial cultures were diluted in MHB to give 2−7×10^5 colony forming units/ml. Bacterial suspension (100 μl) was dispensed in each well; controls without bacteria were maintained in parallel. To each well was added 11 μl of 10× test peptide and plates were incubated at 37° C. for 18-24 hours, and checked again at 40-48 hours. Plates were read visually and at 600 nm in a microplate reader (Molecular Devices).
(§3) were synthesized. The antibacterial activity of these peptides was determined against both Gram-positive bacteria ([…], Corynebacterium xerosis) and Gram-negative bacteria (various strains of E. coli). The results are shown in Table 2, along with the average hydrophobicity of each peptide, calculated as described herein.
(§4) A further number of the peptides of the invention were tested for antimicrobial activity against a range of Gram-positive and Gram-negative bacteria by the assay described immediately before Example 1.

[2] = system: Staphylococcus epidermidis (C621); assay type: cell-based
Text: as §1, §2, §3, §4

E. coli DC2 = experiment: Assay of antibacterial activity (MIC), E. coli DC2; assay type: cell-based, Escherichia coli; details: Table 3; Gram-negative
Text: as §1, §2, §4

E. coli UB1005 = assay type: cell-based, Escherichia coli; details: UB1005
Text: as §1, §2, §4

Rabbit RBC = assay type: cell-based
Experimental: (§5) Erythrocytes from heparinized rabbit or human blood were washed three times with phosphate-buffered saline (PBS; 5 mM phosphate buffer, 0.14 M saline, pH 7.3), and centrifuged at 1000×g for 15 min at 4° C. The erythrocytes were diluted with PBS to 4% (v/v). Dilutions of the peptides in PBS were plated in 100 μl volumes in microtitre plates (Costar 3790, polypropylene) together with 100μl of the erythrocyte suspension. PBS was used as control and 100% lysis was determined in 0.1% Triton X-100. The plates were incubated at 37° C. for 1 h and then centrifuged at 1000×g for 5 min. 100 μl aliquots of the supernatant were transferred to microtitre plates (Nunc, polystyrene), and the release of hemoglobin was monitored by measurement of the absorbance at 540 nm in a microplate reader. The results are shown in Table 6, for peptide concentrations of […]. With only one or two exceptions, little or no hemolysis was seen.

[3] = system: C498: E. coli, wild type strain; assay type: cell-based; details: for MIC C498: wild type strain
Text: as §1, §2, §3

[4] = system: C500: E. coli, antibiotic strain; assay type: cell-based; details: for MIC C500: antibiotic strain
Text: as §1, §2, §3

[5] = Hydrophobicity (hydropathy) from reverse-phase HPLC retention scale; assay type: physicochemical; design: key to Average Hydrophobicity of Core Sequence / Mean Core segment Hydrophobicity: arithmetic average of Table 1 hydropathy values of constituent residues; key to Hydropathy: hydropathy scale from HPLC retention times of model peptides (Table 1); details: for Average Hydrophobicity of Core Sequence: Table 2, calculated from Table 1 hydropathy values
Text: The “hydrophobicity value” of an amino acid residue means the hydrophobicity value of that residue as shown in Table 1 or as calculated by the method described herein.
The “hydrophobicity value” of an amino acid sequence or peptide means the arithmetic average of the individual hydrophobicity values of the constituent amino acid residues of the sequence.
Various hydrophobicity scales for proteins and amino acids have been described in the literature but the inventors have established the hydrophobicity scale of Table 1 based on the retention times on HPLC of a series of hydrophobic model peptides, as described in Liu and Deber (1998), Biopolymers (Peptide Science), v. 47, pp. 41-62).
The hydrophobicity value shown for each amino acid in Table 1 as “hydropathy” may be used as the hydrophobicity value for that amino acid in any peptide whose hydrophobicity value has to be calculated. The “average hydrophobicity” of a peptide containing amino acids shown in Table 1 is calculated by determining the arithmetic average of the Table 1 “hydropathy” values for the constituent amino acids of the sequence.
Peptides in accordance with the invention may also include other amino acids. For an amino acid not included in Table 1, the hydrophobicity value may be determined by the same method as described herein for obtaining the values of Table 1. For example, a peptide such as KKAAAXAAAAAXAAXAAXAAAKKKK-amide (Sequence ID No: 1) may be synthesized, where X is the amino acid whose hydrophobicity value is to be determined, and the retention time of the peptide on HPLC is determined, as described in the Examples. Similar peptides where X is Lys or Phe are also prepared and their HPLC retention times determined. The retention time, Rx, is converted to the hydropathy value H for the selected amino acid using the equation
H=(10×ΔtRx-Lys/ΔtRPhe-Lys)−5.00
where ΔtRx-Lys=retention time difference in minutes between Rx and the retention time of the most hydrophilic peptide tested (X=Lys) and where ΔtRPhe-Lys=retention time difference in minutes between the most hydrophobic peptide tested (X=Phe) and the most hydrophilic (X=Lys).
The retention time of each peptide was determined on a C4 reversed-phase column (4.6×250 mm, 300 A pore size, 10 μ particle size). Equal amounts of each peptide were injected into the column and eluted at a flow rate of 1 mL/min, utilizing a linear AB gradient (2% B/min), where buffer A was 0.1% TFA/ddH2O, and buffer B was 0.1% TFA/acetonitrile. The retention time of each peptide reported here was the average of triplicate measurements.

Human RBC = assay type: cell-based
Experimental: as §5

Molecule | MIC C. xerosis C875 [1] [µM] | MIC S. epidermidis C621 [2] [µM] | MIC E. coli DC2 (E. coli DC2) [µM] | MIC E. coli UB1005 (E. coli UB1005) [µM] | Rabbit RBC (% lysis) 50 μM (Rabbit RBC) [% lysis] | Rabbit RBC (% lysis) 200 μM (Rabbit RBC) [% lysis] | MIC C498 [3] [µM] | MIC C500 [4] [µM] | MIC C621 [2] [µM] | Mean residue hydropathy of X-residue peptide ([5]; Table 1) | Hydropathy ([5]; Table 1, of the X-residue, from HPLC retention of KKAAAXAAAAAXAAWAAXAAAKKKK-amide peptides) | Average Hydrophobicity of Core Sequence [5] | Mean Core segment Hydrophobicity ([5]; Table 3) | Human RBC (% lysis) 50 μM (Human RBC) [% lysis] | Human RBC (% lysis) 200 μM (Human RBC) [% lysis] | MIC C875 [1] [µM] | MIC C498 (active/inactive) ([3]; Table 2, class symbols) | MIC C500 (active/inactive) ([4]; Table 2, class symbols) | MIC C875 (active/inactive) ([1]; Table 2, class symbols) | MIC C621 (active/inactive) ([2]; Table 2, class symbols)
C[C@H](NC(=O)[C@H](C)NC(=O)[C@H](C)NC(=O)[C@H](C)NC(=O)[C@H](C)NC(=O)[C@H](C)NC(=O)[C@H](C)NC(=O)[C@H](CCCCN)NC(=O)[C@@H](N)CCCCN)C(=O)N[C@@H](C)C(=O)N[C@@H](C)C(=O)N[C@@H](C)C(=O)N[C@@H](C)C(=O)N[C@@H](C)C(=O)N[C@@H](Cc1c[nH]c2ccccc12)C(=O)N[C@@H](C)C(=O)N[C@@H](C)C(=O)N[C@@H](C)C(=O)N[C@@H](C)C(=O)N[C@@H](C)C(=O)N[C@@H](C)C(=O)N[C@@H](CCCCN)C(=O)N[C@@H](CCCCN)C(=O)N[C@@H](CCCCN)C(=O)N[C@@H](CCCCN)C(N)=O [Peptide A25] (H-KKAAAAAAAAAAAAWAAAAAAKKKK-NH2; N-terminus assumed) | 2 (≈ 4.5 µg/mL) | >64 | >64 | >64 | 0 | 1 | – | – | – | – | – | – | – | – | – | – | – | – | – | –
CC[C@H](C)[C@H](NC(=O)[C@H](C)NC(=O)[C@H](C)NC(=O)[C@H](C)NC(=O)[C@H](CCCCN)NC(=O)[C@@H](N)CCCCN)C(=O)N[C@@H](C)C(=O)N[C@@H](C)C(=O)N[C@@H](C)C(=O)N[C@@H](C)C(=O)N[C@@H](C)C(=O)N[C@H](C(=O)N[C@@H](C)C(=O)N[C@@H](C)C(=O)N[C@@H](Cc1c[nH]c2ccccc12)C(=O)N[C@@H](C)C(=O)N[C@@H](C)C(=O)N[C@H](C(=O)N[C@@H](C)C(=O)N[C@@H](C)C(=O)N[C@@H](C)C(=O)N[C@@H](CCCCN)C(=O)N[C@@H](CCCCN)C(=O)N[C@@H](CCCCN)C(=O)N[C@@H](CCCCN)C(N)=O)[C@@H](C)CC)[C@@H](C)CC [Peptide I25] (H-KKAAAIAAAAAIAAWAAIAAAKKKK-NH2; N-terminus assumed) | <0.25 | 4 (≈ 9.51 µg/mL) | 16 (≈ 38 µg/mL) | >32 | – | – | 10 (≈ 23.8 µg/mL) | 10 (≈ 23.8 µg/mL) | 5 (≈ 11.9 µg/mL) | 1.09 | 4.41 | 1.09 | 1.09 | – | – | – | – | – | – | –
C[C@H](NC(=O)[C@H](C)NC(=O)[C@H](C)NC(=O)[C@H](CO)NC(=O)[C@H](C)NC(=O)[C@H](C)NC(=O)[C@H](C)NC(=O)[C@H](CCCCN)NC(=O)[C@@H](N)CCCCN)C(=O)N[C@@H](C)C(=O)N[C@@H](C)C(=O)N[C@@H](CO)C(=O)N[C@@H](C)C(=O)N[C@@H](C)C(=O)N[C@@H](Cc1c[nH]c2ccccc12)C(=O)N[C@@H](C)C(=O)N[C@@H](C)C(=O)N[C@@H](CO)C(=O)N[C@@H](C)C(=O)N[C@@H](C)C(=O)N[C@@H](C)C(=O)N[C@@H](CCCCN)C(=O)N[C@@H](CCCCN)C(=O)N[C@@H](CCCCN)C(=O)N[C@@H](CCCCN)C(N)=O [Peptide S25] (H-KKAAASAAAAASAAWAASAAAKKKK-NH2; N-terminus assumed) | >64 | >64 | >64 | >64 | 0 | 3 | – | – | – | – | – | – | – | 0 | 0 | – | – | – | – | –
C[C@H](NC(=O)[C@H](C)NC(=O)[C@H](C)NC(=O)[C@H](Cc1c[nH]c2ccccc12)NC(=O)[C@H](C)NC(=O)[C@H](C)NC(=O)[C@H](C)NC(=O)[C@H](CCCCN)NC(=O)[C@@H](N)CCCCN)C(=O)N[C@@H](C)C(=O)N[C@@H](C)C(=O)N[C@@H](Cc1c[nH]c2ccccc12)C(=O)N[C@@H](C)C(=O)N[C@@H](C)C(=O)N[C@@H](Cc1c[nH]c2ccccc12)C(=O)N[C@@H](C)C(=O)N[C@@H](C)C(=O)N[C@@H](Cc1c[nH]c2ccccc12)C(=O)N[C@@H](C)C(=O)N[C@@H](C)C(=O)N[C@@H](C)C(=O)N[C@@H](CCCCN)C(=O)N[C@@H](CCCCN)C(=O)N[C@@H](CCCCN)C(=O)N[C@@H](CCCCN)C(N)=O [Peptide W25] (H-KKAAAWAAAAAWAAWAAWAAAKKKK-NH2; N-terminus assumed) | <0.25 | <0.25 | 8 (≈ 20.8 µg/mL) | 16 (≈ 41.6 µg/mL) | – | – | 6 (≈ 15.6 µg/mL) | 3 (≈ 7.79 µg/mL) | 0.7 (≈ 1.82 µg/mL) | – | – | – | – | – | – | 0.2 (≈ 0.519 µg/mL) | – | – | – | –
KKATALVGAASLTAWVGLASAKKKK-NH2 | – | – | – | – | – | – | – | – | – | – | – | 0.62 | – | – | – | – | + | + | + | +
